Measurements as given in publication PMC9177597, “Structural basis of substrate recognition and translocation by human very long-chain fatty acid transporter ABCD1” (Nature Communications, 2022).
Positions count from the first letter of the chain named.

Tests used:
chABCD1 (chimeric ABCD1) [1] = target: T1, chABCD1 (chimeric ABCD1) (Homo sapiens, UniProt P33897, G343V); assay: substrate-stimulated ATPase assay (colorimetric Pi release); assay type: biochemical; settings: 5 μM C22:0-CoA, 2 mM ATP, 2 mM MgCl2, LMNG + CHS, pH 7.5, 37 °C
T1 construct: single polypeptide: N-terminal FLAG tag, PMP-4 residues 1-65 replacing human ABCD1 residues 1-63, then human ABCD1 64-745; HEK293F; homodimer; LMNG/CHS for assays, digitonin for cryo-EM; with PMP-4 (peroxisomal membrane protein related, ABCD1 homolog, Caenorhabditis elegans; N-terminal segment fused to the target chain)
T1 sequence (P33897 64-745 G343V): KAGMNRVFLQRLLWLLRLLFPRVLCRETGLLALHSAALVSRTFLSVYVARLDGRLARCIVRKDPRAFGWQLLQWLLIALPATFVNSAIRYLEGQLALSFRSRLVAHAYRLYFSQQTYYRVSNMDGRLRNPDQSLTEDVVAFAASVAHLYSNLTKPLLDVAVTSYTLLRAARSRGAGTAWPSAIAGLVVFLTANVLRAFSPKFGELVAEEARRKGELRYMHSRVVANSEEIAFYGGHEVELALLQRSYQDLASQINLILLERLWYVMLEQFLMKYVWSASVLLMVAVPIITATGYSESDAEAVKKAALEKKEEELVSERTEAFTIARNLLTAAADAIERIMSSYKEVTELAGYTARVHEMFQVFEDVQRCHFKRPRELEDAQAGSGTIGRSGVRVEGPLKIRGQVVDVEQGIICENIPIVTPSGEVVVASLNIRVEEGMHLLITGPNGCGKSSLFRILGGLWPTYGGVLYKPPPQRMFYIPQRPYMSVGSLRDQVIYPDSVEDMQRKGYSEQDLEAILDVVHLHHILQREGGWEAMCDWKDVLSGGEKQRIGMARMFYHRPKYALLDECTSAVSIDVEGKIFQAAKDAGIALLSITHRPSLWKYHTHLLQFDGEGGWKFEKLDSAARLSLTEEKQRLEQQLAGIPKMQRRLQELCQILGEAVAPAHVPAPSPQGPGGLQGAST

chABCD1 (chimeric ABCD1) [2] = target: T2, chABCD1 (chimeric ABCD1) (Homo sapiens, UniProt P33897, K336A); assay: as above; assay type: biochemical; settings: 5 μM C22:0-CoA, 2 mM ATP, 2 mM MgCl2, LMNG + CHS, pH 7.5, 37 °C
T2 construct: single polypeptide: N-terminal FLAG tag, PMP-4 residues 1-65 replacing human ABCD1 residues 1-63, then human ABCD1 64-745; HEK293F; homodimer; LMNG/CHS for assays, digitonin for cryo-EM; with PMP-4 (peroxisomal membrane protein related, ABCD1 homolog, Caenorhabditis elegans; N-terminal segment fused to the target chain)
T2 sequence (P33897 64-745 K336A): T1 sequence (P33897 64-745 G343V) with K273A, V280G

CCCCCCCCCCCCCCCCCCCCCC(=O)SCCNC(=O)CCNC(=O)[C@H](O)C(C)(C)COP(=O)(O)OP(=O)(O)OC[C@H]1O[C@@H](n2cnc3c(N)ncnc32)[C@H](O)[C@@H]1OP(=O)(O)O [C22:0-CoA]
relative ATPase activity (chABCD1 (chimeric ABCD1) [1]): displayed significantly decreased substrate-simulated ATPase activity, compared to the wild-type
relative ATPase activity (chABCD1 (chimeric ABCD1) [2]): displayed significantly decreased substrate-simulated ATPase activity, compared to the wild-type
